Literature values, collected in patent US8584539B2, “Delivery device for dispensing pharmaceutical dosage forms into dissolution testing apparatus” (Rohm and Haas Company, priority 2010, dated 2013).
Read-outs that look alike come from different tables or passages of the source.

For O=C(O)Cc1ccccc1Nc1c(Cl)cccc1Cl [diclofenac sodium], the solubility (low pH of the stomach) is given as “essentially insoluble” and the solubility (near neutral conditions of the upper GI) is given as “soluble”.
